Results taken from US11555009B2, “2-(substituted benzene matrix) aromatic formate FTO inhibitor, preparation method therefor, and applications thereof” (SHANGHAI INSTITUTE OF MATERIA MEDICA, CHINESE ACADEMY OF …, priority 2017, dated 2023).

Key:
FTO = FTO (Homo sapiens (Human), UniProt Q9C0B1); assay: FTO enzyme inhibition (m6A dsDNA substrate, DpnII digestion, gel readout); type: biochemical; conditions: for Inhibition rate: in vitro inhibition rate on FTO, compound at 50 μM; for inhibition at 50 µM: read-out: Inhibition rate
Protocol: High purity FTO protein was obtained by nickel column affinity chromatography purification.
After incubation at room temperature for 2 hrs, the reaction system was then slowly heated to 65° C. to inactivate, and 1 μM 39 nt of antisense strand DNA was added to anneal, thereby forming double strands. […] After Gel-Red dyeing, photos were taken with gel imaging system. The obtained band was subjected to gray scale reading to obtain inhibition rate.

[1] = test system: human small cell lung cancer cell lines (SCLC-21H); assay: MTS cytotoxicity on SCLC-21H cells; type: cell-based; conditions: 50 μM, 72 h; for inhibition at 50 µM: Homo sapiens, SCLC-21H, read-out: Inhibition rate (human small cell lung cancer SCLC-21H)
Protocol: (§1) The following was a study of the cytotoxicity study of compound of 2-(substituted phenylhetero)aromatic formic acid of formula (I) and its derivatives as FTO inhibitors on solid tumors including human small cell lung cancer cell lines (SCLC-21H), human bone marrow rhabdomyosarcoma cell line (RH30) and pancreatic cancer cell Line (KP3):
(§2) SCLC-21H, RH30 and KP3 solid tumor cell lines were cultivated separately, and seeded at 5000 cells per well in 96 well plates. The cells were cultured until the cells were adherent, and different compounds were added and the cultivation was continued for 72 hours. 10 uL of MTS solution was directly added and the mixture was incubated for 4 h, and the absorbance was measured at 490 nm. The inhibition rate was calculated by using the DMSO group as a control.

[2] = test system: human bone marrow rhabdomyosarcoma cell line (RH30); assay: MTS cytotoxicity on RH30 cells; type: cell-based; conditions: 50 μM, 72 h; for inhibition at 50 µM: Homo sapiens, Rh30, read-out: Inhibition rate (human bone marrow rhabdomyosarcoma cell RH30)
Protocol: as §1, §2

FTO, sequence (Q9C0B1 whole entry): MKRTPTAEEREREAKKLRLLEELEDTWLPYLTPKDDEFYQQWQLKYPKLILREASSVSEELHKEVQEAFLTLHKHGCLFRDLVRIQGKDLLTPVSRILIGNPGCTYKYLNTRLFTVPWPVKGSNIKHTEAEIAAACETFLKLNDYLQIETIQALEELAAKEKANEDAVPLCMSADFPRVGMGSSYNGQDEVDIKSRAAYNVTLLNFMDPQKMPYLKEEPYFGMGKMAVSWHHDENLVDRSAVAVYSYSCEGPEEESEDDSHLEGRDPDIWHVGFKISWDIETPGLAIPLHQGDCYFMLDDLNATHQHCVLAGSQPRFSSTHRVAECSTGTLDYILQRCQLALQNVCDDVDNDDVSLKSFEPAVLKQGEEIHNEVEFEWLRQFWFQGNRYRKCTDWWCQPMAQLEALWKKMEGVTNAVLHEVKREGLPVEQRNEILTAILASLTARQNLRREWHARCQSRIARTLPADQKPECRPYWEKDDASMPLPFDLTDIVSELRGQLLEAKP

Row | SMILES | Inhibition rate (FTO) [%] | Inhibition rate (human small cell lung cancer SCLC-21H) [1] [%] | Inhibition rate (human bone marrow rhabdomyosarcoma cell RH30) [2] [%] | other results
1 | O=C(O)c1ccccc1Nc1c(F)cc(-c2cn[nH]c2)cc1F [Compound 36] | 28 |  |  | 
2 | O=C(O)c1ccccc1Nc1c(Cl)cc(-c2ccncc2)cc1Cl [Compound 5] |  |  |  | IC50 (FTO): < 5000 nM; inhibition at 50 µM [1]: 55%; inhibition at 50 µM [2]: 29%
3 | Cc1noc(C)c1-c1cc(Cl)c(Nc2ccc([N+](=O)[O-])cc2C(=O)O)c(Cl)c1 [Compound 74] | 75 | 38 | 32 | 
4 | O=C(NO)c1nccnc1Nc1c(Cl)cc(-c2cn[nH]c2)cc1Cl [Compound 64] | 68 | 24 | 30 | 
5 | Cc1noc(C)c1-c1cc(Cl)c(Nc2ccccc2C(=O)OCc2oc(=O)oc2C)c(Cl)c1 [Compound 88] |  |  |  | inhibition at 50 µM (FTO): 34%
6 | O=C(O)c1ccccc1Nc1ccc(-c2ccncc2)cc1O [Compound 52] | 90 |  |  | 
7 | O=C(O)c1nccnc1Nc1c(Cl)cc(-c2ccncc2)cc1Cl [Compound 66] |  | 48 | 53 | 
8 | CCCOCCOC(=O)c1ccccc1Nc1c(Cl)cc(-c2c(C)noc2C)cc1Cl [Compound 85] |  |  |  | inhibition at 50 µM (FTO): 30%
9 | O=C(O)c1ccccc1Nc1c(Cl)cc(C2CCNCC2)cc1Cl [Compound 56] | 45 |  |  | 
10 | Cc1cc(-c2c(C)noc2C)cc(C)c1Nc1ccccc1C(=O)O [Compound 44] | 100 | 47 | 24 | 
11 | Cc1noc(C)c1-c1cc(Cl)c(Nc2ccccc2C(=O)O)c(Cl)c1 [Compound 29] |  | 46 | 47 | 
12 | O=C(NO)c1cccnc1Nc1c(Cl)cc(-c2ccncc2)cc1Cl [Compound 62] | 28 | 84 | 87 | 
13 | Cc1cc(-c2ccncc2)cc(C)c1Nc1ccccc1C(=O)O [Compound 46] | 100 | 66 | 41 | 
14 | Cc1noc(C)c1-c1cc(Cl)c(Nc2ccc(N)cc2C(=O)O)c(Cl)c1 [Compound 75] | 58 | 60 | 51 | 
15 | O=C(O)c1cccnc1Nc1c(Cl)cc(-c2ccccc2)cc1Cl [Compound 60] |  | 71 | 72 | 
16 | Cc1n[nH]cc1-c1cc(Cl)c(Nc2nccnc2C(=O)O)c(Cl)c1 [Compound 67] |  | 33 | 41 | 
17 | Cc1noc(C)c1-c1cc(Cl)c(Nc2ccc(F)cc2C(=O)O)c(Cl)c1 [Compound 69] |  | 50 | 29 | 
18 | O=C(O)c1cccnc1Nc1c(Cl)cc(-c2ccoc2)cc1Cl [Compound 59] | 100 | 28 | 57 | 
19 | Cc1noc(C)c1-c1cc(Cl)c(Nc2ccccc2C(=O)O)c(Cl)c1 [Compound 15, 2-((2,6-dichloro-4-(3,5-dimethylisoxazole)phenyl)amino)benzoic acid] |  |  |  | inhibition at 50 µM [1]: 43%; inhibition at 50 µM [2]: 49%
20 | Cc1noc(C)c1-c1cc(Cl)c(Nc2ccccc2C(=O)O)c(Cl)c1 [Compound 28] |  | 32 | 21 | 
21 | O=C(O)c1ccccc1Nc1c(Cl)cc(-c2ccn[nH]2)cc1Cl [Compound 2] |  |  |  | IC50 (FTO): < 5000 nM; inhibition at 50 µM (FTO): 80%

Row | SMILES | Inhibition rate (FTO) [%] | Inhibition rate (human small cell lung cancer SCLC-21H) [1] [%] | Inhibition rate (human bone marrow rhabdomyosarcoma cell RH30) [2] [%] | other results
22 | COc1cc(-c2cc[nH]n2)cc(OC)c1Nc1ccccc1C(=O)O [Compound 42] | 79 | 33 | 33 | 
23 | O=C(O)c1ccccc1Nc1cc(F)c(-c2ccncc2)c(F)c1 [Compound 49] | 100 | 20 | 51 | 
24 | Cc1cc(-c2c(C)noc2C)c(C)cc1Nc1ccccc1C(=O)O [Compound 48] |  | 63 | 51 | 
25 | COc1cc(-c2cn[nH]c2)cc(OC)c1Nc1ccccc1C(=O)O [Compound 41] |  | 35 | 28 | 
26 | Cc1noc(C)c1-c1cc(Cl)c(Nc2ccccc2C(=O)OCOC(=O)C(C)(C)C)c(Cl)c1 [Compound 87] |  |  |  | inhibition at 50 µM (FTO): 31%; inhibition at 50 µM [1]: 26%; inhibition at 50 µM [2]: 28%
27 | O=C(O)c1cc(F)ccc1Nc1c(Cl)cc(-c2cn[nH]c2)cc1Cl [Compound 73] | 84 |  |  | 
28 | Cc1noc(C)c1-c1cc(Cl)c(Nc2ccccc2C(=O)O)c(Cl)c1 [Compound 30] |  | 33 | 32 | 
29 | COc1cc(OC)cc(-c2cc(Cl)c(Nc3ncccc3C(=O)O)c(Cl)c2)c1 [Compound 61] |  | 44 | 52 | 
30 | Cc1noc(C)c1-c1cc(O)c(Nc2ccccc2C(=O)O)c(O)c1 [Compound 40] | 100 |  |  | 
31 | O=C(O)c1cc(F)ccc1Nc1c(Cl)cc(-c2ccncc2)cc1Cl [Compound 70] | 81 | 46 | 42 | 
32 | CCN(CC)CCOC(=O)c1ccccc1Nc1c(Cl)cc(-c2c(C)noc2C)cc1Cl [Compound 86] |  |  |  | inhibition at 50 µM (FTO): 31%
33 | O=C(O)c1nccnc1Nc1c(Cl)cc(-c2ccoc2)cc1Cl [Compound 68] |  | 68 | 56 | 
34 | C#CCOC(=O)c1ccccc1Nc1c(Cl)cc(-c2c(C)noc2C)cc1Cl [Compound 84] |  |  |  | inhibition at 50 µM (FTO): 34%
35 | O=C(O)c1cc(F)ccc1Nc1c(Cl)cc(-c2ccc(F)cc2)cc1Cl [Compound 72] |  | 64 | 37 | 
36 | Cc1n[nH]c(C)c1-c1cc(Cl)c(Nc2ccccc2C(=O)O)c(Cl)c1 [Compound 17] |  |  |  | inhibition at 50 µM [1]: 25%; inhibition at 50 µM [2]: 39%
37 | COc1cc(-c2c(C)noc2C)cc(OC)c1Nc1ccccc1C(=O)O [Compound 43] |  | 44 | 25 | 
38 | O=C(O)c1ccccc1Nc1c(Cl)cc(-c2cc(O)cc(O)c2)cc1Cl [Compound 1] |  |  |  | IC50 (FTO): 700 nM; inhibition at 50 µM (FTO): 85%
39 | O=C(O)c1cc(F)ccc1Nc1c(Cl)cc(-c2cncnc2)cc1Cl [Compound 71] | 70 |  |  | 
40 | O=C(O)c1ccccc1Nc1c(Cl)cc(N2CCOCC2)cc1Cl [Compound 55] | 100 |  |  | IC50 (FTO): < 5000 nM
41 | Cc1noc(C)c1-c1cc(Cl)c(Nc2ccccc2-c2nn[nH]n2)c(Cl)c1 [Compound 26] |  | 17 | 36 | 
42 | O=C(O)c1ccc(-c2cc(Cl)c(Nc3ccccc3C(=O)O)c(Cl)c2)s1 [Compound 10] |  |  |  | IC50 (FTO): < 1000 nM
